Measurements as given in patent publication US20170190671A1, “BIS(ARYL)CATECHOL DERIVATIVES AS HERBICIDES” (E I DU PONT DE NEMOURS AND COMPANY, priority 2014, published 2017).

Legend:
Assay type in all cases: in vivo
[1] = system: johnsongrass (Sorghum halepense); assay: Test C postemergence; settings: Sorghum halepense, post-emergence, 336 h, Postemergence, scale 0 to 100, read-out: Plant response rating, Johnsongrass
Method in brief: (§1)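 Visual ratings (0 none to 100 complete control) were made 13 to 15 days after treatment, relative to controls. Test chemicals, formulated in a non-phytotoxic solvent mixture with surfactant, were applied in the greenhouse preemergence to seeded loam-sand soil or postemergence to plants 2 to 18 cm tall.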

[2] = system: oilseed rape (Brassica napus); assay: Test C postemergence; settings: Brassica napus, post-emergence, Postemergence, scale 0 to 100, read-out: Plant response rating, Oilseed Rape
Method in brief: as §1

[3] = system: yellow nutsedge (Cyperus esculentus); assay: Test C postemergence; settings: Cyperus, post-emergence, 336 h, Postemergence, scale 0 to 100, read-out: Plant response rating, Nutsedge, Yellow
Method in brief: as §1

[4] = system: blackgrass (Alopecurus myosuroides); assay: Test C postemergence; settings: Alopecurus myosuroides, post-emergence, 336 h, Postemergence, scale 0 to 100, read-out: Plant response rating, Blackgrass
Method in brief: as §1

[5] = system: velvetleaf (Abutilon theophrasti); assay: Test C postemergence; settings: Abutilon theophrasti, post-emergence, Postemergence, scale 0 to 100, read-out: Plant response rating, Velvetleaf
Method in brief: as §1

[6] = system: morningglory (Ipomoea coccinea); assay: Test C postemergence; settings: Ipomoea, post-emergence, 336 h, Postemergence, scale 0 to 100, read-out: Plant response rating, Morningglory
Method in brief: as §1

[7] = system: lambsquarters (Chenopodium album); assay: Test C postemergence; settings: Chenopodium album, post-emergence, 336 h, Postemergence, scale 0 to 100, read-out: Plant response rating, Lambsquarters
Method in brief: as §1

[8] = system: Italian ryegrass (Lolium multiflorum); assay: Test C postemergence; settings: Lolium multiflorum, post-emergence, 336 h, Postemergence, scale 0 to 100, read-out: Plant response rating, Ryegrass, Italian
Method in brief: as §1

[9] = system: ragweed (common ragweed, Ambrosia elatior); assay: Test C postemergence; settings: Ambrosia artemisiifolia, post-emergence, 336 h, Postemergence, scale 0 to 100, read-out: Plant response rating, Ragweed
Method in brief: as §1

[10] = system: barnyardgrass (Echinochloa crus-galli); assay: Test C postemergence; settings: Echinochloa crus-galli, post-emergence, Postemergence, scale 0 to 100, read-out: Plant response rating, Barnyardgrass
Method in brief: as §1

[11] = system: chickweed (common chickweed, Stellaria media); assay: Test C postemergence; settings: Stellaria media, post-emergence, Postemergence, scale 0 to 100, read-out: Plant response rating, Chickweed
Method in brief: as §1

corn (Zea mays) = assay: Test C postemergence; settings: Zea mays, post-emergence, 336 h, Postemergence, scale 0 to 100
Method in brief: as §1

[12] = system: giant foxtail (Setaria faberii); assay: Test C postemergence; settings: Setaria faberi, post-emergence, 336 h, Postemergence, scale 0 to 100, read-out: Plant response rating, Foxtail, Giant
Method in brief: as §1

[13] = system: galium (catchweed bedstraw, Galium aparine); assay: Test C postemergence; settings: Galium, post-emergence, 336 h, Postemergence, scale 0 to 100, read-out: Plant response rating, Galium
Method in brief: as §1

[14] = system: large (Lg) crabgrass (Digitaria sanguinalis); assay: Test C postemergence; settings: Digitaria sanguinalis, post-emergence, 336 h, Postemergence, scale 0 to 100, read-out: Plant response rating, Crabgrass, Large
Method in brief: as §1

[15] = system: winter wheat (Triticum aestivum); assay: Test C postemergence; settings: Triticum aestivum, post-emergence, 336 h, Postemergence, scale 0 to 100, read-out: Plant response rating, Wheat
Method in brief: as §1

soybean (Glycine max) = assay: Test C postemergence; settings: Glycine max, post-emergence, Postemergence, scale 0 to 100, read-out: Plant response rating, Soybean
Method in brief: as §1

wild oat (Avena fatua) = assay: Test C postemergence; settings: Avena fatua, post-emergence, Postemergence, scale 0 to 100, read-out: Plant response rating, Oat, Wild
Method in brief: as §1

kochia (Kochia scoparia) = assay: Test C postemergence; settings: Bassia scoparia, post-emergence, Postemergence, scale 0 to 100, read-out: Plant response rating, Kochia
Method in brief: as §1

[16] = system: oilseed rape (Brassica napus); assay: Test C preemergence; settings: Brassica napus, pre-emergence, scale 0 to 100, read-out: Plant response rating, Oilseed Rape
Method in brief: as §1

[17] = system: yellow nutsedge (Cyperus esculentus); assay: Test C preemergence; settings: Cyperus, pre-emergence, 336 h, scale 0 to 100, read-out: Plant response rating, Nutsedge, Yellow
Method in brief: as §1

[18] = system: blackgrass (Alopecurus myosuroides); assay: Test C preemergence; settings: Alopecurus myosuroides, pre-emergence, 336 h, scale 0 to 100, read-out: Plant response rating, Blackgrass
Method in brief: as §1

Fc1cnc(Oc2c(F)ccc(F)c2Oc2ncc(F)cn2)nc1 [Compound 29, 2,2′-[(3,6-difluoro-1,2-phenylene)bis(oxy)]bis[5-fluoropyrimidine]]
80%: pest or weed control at 125 g/ha ([5]; 125 g ai/ha) | pest or weed control at 31 g/ha ([7]; 31 g ai/ha) | pest or weed control at 125 g/ha ([9]; 125 g ai/ha) | pest or weed control at 16 g/ha (kochia (Kochia scoparia); 16 g ai/ha)
75%: pest or weed control at 31 g/ha ([5]; 31 g ai/ha) | pest or weed control at 62 g/ha ([5]; 62 g ai/ha) | pest or weed control at 31 g/ha ([6]; 31 g ai/ha) | pest or weed control at 16 g/ha ([7]; 16 g ai/ha) | pest or weed control at 62 g/ha ([9]; 62 g ai/ha) | plant injury at 62 g/ha (soybean (Glycine max); 62 g ai/ha)
10%: pest or weed control at 125 g/ha ([14]; 125 g ai/ha)
70%: plant injury at 62 g/ha ([2]; 62 g ai/ha) | pest or weed control at 31 g/ha ([9]; 31 g ai/ha) | plant injury at 31 g/ha (soybean (Glycine max); 31 g ai/ha)
40%: pest or weed control at 125 g/ha ([17]; 125 g ai/ha, preemergence)
15%: pest or weed control at 125 g/ha ([10]; 125 g ai/ha)
85%: pest or weed control at 62 g/ha ([7]; 62 g ai/ha) | pest or weed control at 125 g/ha ([7]; 125 g ai/ha) | pest or weed control at 16 g/ha ([13]; 16 g ai/ha) | pest or weed control at 31 g/ha ([13]; 31 g ai/ha) | plant injury at 125 g/ha (soybean (Glycine max); 125 g ai/ha)
30%: pest or weed control at 62 g/ha (wild oat (Avena fatua); 62 g ai/ha)
95%: pest or weed control at 125 g/ha ([6]; 125 g ai/ha) | pest or weed control at 125 g/ha (kochia (Kochia scoparia); 125 g ai/ha) | plant injury at 62 g/ha ([16]; 62 g ai/ha, preemergence) | plant injury at 125 g/ha ([16]; 125 g ai/ha, preemergence) | plant injury at 16 g/ha ([16]; Preemergence, 16 g ai/ha)
50%: pest or weed control at 31 g/ha ([11]; 31 g ai/ha) | pest or weed control at 62 g/ha ([11]; 62 g ai/ha)
98%: pest or weed control at 125 g/ha ([13]; 125 g ai/ha) | plant injury at 31 g/ha ([16]; 31 g ai/ha, preemergence)
45%: pest or weed control at 16 g/ha ([11]; 16 g ai/ha)
0%: pest or weed control at 16 g/ha ([1]; 16 g ai/ha) | pest or weed control at 31 g/ha ([1]; 31 g ai/ha) | pest or weed control at 31 g/ha ([3]; 31 g ai/ha) | pest or weed control at 62 g/ha ([3]; 62 g ai/ha) | pest or weed control at 125 g/ha ([3]; 125 g ai/ha) | pest or weed control at 16 g/ha ([4]; 16 g ai/ha) | pest or weed control at 31 g/ha ([4]; 31 g ai/ha) | pest or weed control at 31 g/ha ([8]; 31 g ai/ha) | pest or weed control at 16 g/ha ([10]; 16 g ai/ha) | pest or weed control at 31 g/ha ([10]; 31 g ai/ha) | Corn plant response rating (crop injury, 0 = no effect, 100 = complete kill) at 16 g/ha (corn (Zea mays); 16 g ai/ha) | Corn plant response rating (crop injury, 0 = no effect, 100 = complete kill) at 31 g/ha (corn (Zea mays); 31 g ai/ha) | pest or weed control at 16 g/ha ([12]; 16 g ai/ha) | pest or weed control at 31 g/ha ([12]; 31 g ai/ha) | pest or weed control at 16 g/ha ([14]; 16 g ai/ha) | pest or weed control at 31 g/ha ([14]; 31 g ai/ha) | plant injury at 31 g/ha ([15]; 31 g ai/ha) | plant injury at 62 g/ha ([15]; 62 g ai/ha) | plant injury at 125 g/ha ([15]; 125 g ai/ha) | pest or weed control at 31 g/ha ([17]; 31 g ai/ha, preemergence) | pest or weed control at 62 g/ha ([17]; 62 g ai/ha, preemergence) | pest or weed control at 16 g/ha ([17]; Preemergence, 16 g ai/ha)
20%: pest or weed control at 62 g/ha ([1]; 62 g ai/ha) | pest or weed control at 125 g/ha ([1]; 125 g ai/ha) | pest or weed control at 125 g/ha ([4]; 125 g ai/ha) | pest or weed control at 125 g/ha ([8]; 125 g ai/ha) | pest or weed control at 125 g/ha ([12]; 125 g ai/ha)
65%: pest or weed control at 125 g/ha ([11]; 125 g ai/ha)
5%: pest or weed control at 62 g/ha ([4]; 62 g ai/ha) | pest or weed control at 62 g/ha ([10]; 62 g ai/ha) | Corn plant response rating (crop injury, 0 = no effect, 100 = complete kill) at 62 g/ha (corn (Zea mays); 62 g ai/ha) | Corn plant response rating (crop injury, 0 = no effect, 100 = complete kill) at 125 g/ha (corn (Zea mays); 125 g ai/ha) | pest or weed control at 62 g/ha ([12]; 62 g ai/ha) | pest or weed control at 62 g/ha ([14]; 62 g ai/ha) | pest or weed control at 31 g/ha (wild oat (Avena fatua); 31 g ai/ha)
35%: pest or weed control at 62 g/ha ([8]; 62 g ai/ha) | pest or weed control at 125 g/ha (wild oat (Avena fatua); 125 g ai/ha)
60%: plant injury at 31 g/ha ([2]; 31 g ai/ha) | pest or weed control at 16 g/ha ([18]; Preemergence, 16 g ai/ha)
90%: plant injury at 125 g/ha ([2]; 125 g ai/ha) | pest or weed control at 62 g/ha ([6]; 62 g ai/ha) | pest or weed control at 62 g/ha ([13]; 62 g ai/ha) | pest or weed control at 31 g/ha (kochia (Kochia scoparia); 31 g ai/ha) | pest or weed control at 62 g/ha (kochia (Kochia scoparia); 62 g ai/ha) | pest or weed control at 31 g/ha ([18]; 31 g ai/ha, preemergence) | pest or weed control at 62 g/ha ([18]; 62 g ai/ha, preemergence) | pest or weed control at 125 g/ha ([18]; 125 g ai/ha, preemergence)
